Earlier results, collected in US5786344A, “Camptothecin drug combinations and methods with reduced side effects” (priority 1995, dated 1998).
Entries after “also recorded” stand apart in the source; their conditions may differ. Structures can show the parent of a compound that is named as a salt. Where two headings read alike, the source gives them in different places. *1 amine or outer side, *2 acyl side, *3 side chain or, on linkers, in order; H or OH if unused. Where a SMILES comes first, the peptide text is derived from it. Bridges are numbered along the chain shown (N, C = ends). Roman numbers before positions name the chains, in order. [ ]: non-standard residue; d: D form. Actinocin(9to1) = Cc1c2oc3c(C)ccc(C(=O)[*:1])c3nc-2c(C(=O)[*:2])c(N)c1=O; NMeV = CN[C@H](C(=O)O)C(C)C; Sar = CNCC(=O)O

Tests used:
[1] = cited from earlier work
[2] = system: p-glycoprotein; conditions: cited from earlier work
[3] = system: human and murine cell lines; conditions: 4-6 μM; cited from earlier work
[4] = system: plasma proteins; conditions: cited from earlier work
[5] = system: breast, ovarian, non-small cell lung, colorectal, gastric and renal cell carcinomas; conditions: in vitro; cited from earlier work
[6] = system: p-glycoprotein; conditions: cited from earlier work; remark: listed apart in the source
[7] = system: outwardly-rectifying chloride channel; conditions: 50 μM; cited from earlier work
[8] = system: p-glycoprotein; conditions: renal tubules; cited from earlier work
[9] = cited from earlier work; for clinical toxicity: human, in vivo
[10] = system: p-glycoprotein; conditions: cited from earlier work; remark: listed apart in the source
[11] = system: multidrug resistant (MDR) cells; conditions: cited from earlier work
[12] = system: tumors; conditions: preclinical and clinical tumors; cited from earlier work
[13] = plasma/serum/terminal or elimination half-life

SMILES: COc1cccc2c1C(=O)c1c(O)c3c(c(O)c1C2=O)C[C@@](O)(C(C)=O)C[C@@H]3O[C@H]1C[C@H](N)[C@H](O)[C@H](C)O1 [daunorubicin, hydrochloride]
- distribution half-life ([1]; human, in vivo, iv): 0.75 h
- oral absorption ([1]; human, in vivo, po): Oral absorption is poor
- biliary secretion ([1]; human, in vivo): ~40%
- half-life [1, 13]: about 19 hr
- inhibition of amphiphilic cation transport ([2]; hydrochloride): inhibited
- inhibition of amphiphilic cation transport ([2]; listed as Daunorubicin, hydrochloride): inhibit

SMILES: CC/C(=C(\c1ccccc1)c1ccc(OCCNC)cc1)c1ccccc1 [N-desmethyltamoxifen]
- concentration ([1]; read-out: plasma level, oral tamoxifen 150 mg/m2 twice a day after 400 mg/m2 loading dose): 6000 nM
- enhancement of intracellular concentration of cytotoxic drugs [3]: three-fold to ten-fold

SMILES: CC(C)(Oc1ccc(Cl)cc1)C(=O)O [clofibric acid]
- plasma protein binding [4]: bound strongly to plasma proteins
- fraction metabolized ([1]; human, in vivo): About 60%
- half-life ([1]; human, in vivo): 6 to 25 h
- half-life in anuria ([1]; human, in vivo): over 100 hr
- half-life, average or usual ([1]; human, in vivo): 11 h

SMILES: CC[C@@]1(O)C(=O)OCc2c1cc1n(c2=O)Cc2cc3c(CN(C)C)c(O)ccc3nc2-1 [topotecan]
- activity in clonogenic assay [5]: exhibited activity in breast, ovarian, non-small cell lung, colorectal, gastric and renal cell carcinomas

SMILES: COc1ccc([C@@H]2Sc3ccccc3N(CCN(C)C)C(=O)[C@@H]2OC(C)=O)cc1 [Diltiazem, benzothiazepin-4(5H)-one, 3-(acetyloxy)-5-[2-(dimethylamino)ethyl]-2,3-dihydro-2-(4-methoxyphenyl)-,(+) -cis-, monohydrochloride]
- plasma protein binding ([4]; plasma): 70-80%
- bioavailability / dose reaching the systemic circulation ([1]; human, in vivo, po): 40-60%
- oral absorption ([1]; human, in vivo, po): 80%
- excreted unchanged (urine) ([1]; human, in vivo): Less than 4%
- half-life ([1]; human, in vivo): about 4 hr
- inhibition of / interaction with p-glycoprotein [6]: p-glycoprotein inhibitor

SMILES: CC[C@]1(O)C[C@@H]2CN(CCc3c([nH]c4ccccc34)[C@@](C(=O)OC)(c3cc4c(cc3OC)N(C)[C@H]3[C@@](O)(C(=O)OC)[C@H](OC(C)=O)[C@]5(CC)C=CCN6CC[C@]43[C@@H]65)C2)C1 [vinblastine]
- block of chloride channel / transport associated with p-glycoprotein [7]: blocked
- plasma protein binding [4]: bind to plasma proteins
- plasma half-life, first phase ([1]; human, in vivo, iv): approximately 1 hours
- plasma half-life, second phase ([1]; human, in vivo, iv): ~20 h
- Cmax ([1]; human, in vivo): ~400 nM
- excreted unchanged (urine) ([1]; human, in vivo): Approximately 15%
- fecal excretion ([1]; human, in vivo): about 10%
- inhibition of / interaction with p-glycoprotein [6]: p-glycoprotein inhibitor; also recorded: interacted with p-glycoprotein
- inhibition of p-glycoprotein-mediated transport [8]: inhibitors

SMILES: CCOC(=O)C1=C(C)NC(C)=C(C(=O)OC)C1c1cccc([N+](=O)[O-])c1 (stereo not drawn) [Nitrendipine, 3,5-Pyridinedicarboxylic acid, 1,4-dihydro-2,6-dimethyl-4-(3-nitrophenyl)-, ethyl methyl ester]
- plasma protein binding ([4]; plasma): About 98%
- bioavailability / dose reaching the systemic circulation ([1]; human, in vivo, po): 10-22%
- half-life, average or usual ([1]; human, in vivo): ~12 h

SMILES: COC(=O)[C@H]1[C@H]2C[C@@H]3c4[nH]c5cc(OC)ccc5c4CCN3C[C@H]2C[C@@H](OC(=O)c2cc(OC)c(OC)c(OC)c2)[C@@H]1OC [reserpine, Yohimban-16-carboxylic acid, 11,17-dimethoxy-18-[(3,4,5-trimethoxybenzoyl)oxy]-, methyl ester, (3β,16β,17α,18β,20α)-]
- persistence of effects after discontinuation ([9]; oral): ≤ 4 weeks
- inhibition of digoxin transport [10]: inhibited
- oral absorption ([1]; human, in vivo, po): absorbed poorly and erratically
- inhibition of / interaction with p-glycoprotein [6]: binds to p-glycoprotein and inhibits photo-labeling
- inhibition of photoaffinity labeling of p-glycoprotein ([6]; photolabeling): showed inhibition

SMILES: C=C[C@H]1C[N@@]2CC[C@H]1C[C@@H]2[C@@H](O)c1ccnc2ccc(OC)cc12 [quinidine]
- inhibition of digoxin transport [10]: inhibited digoxin transport
- oral absorption ([1]; human, in vivo, po): 90%
- elimination by hepatic biotransformation ([1]; human, liver): 50-60%
- inhibition of / interaction with p-glycoprotein [6]: binds to p-glycoprotein and inhibits photo-labeling
- inhibition of amphiphilic cation transport [2]: inhibit

SMILES: COc1cccc2c1C(=O)c1c(O)c3c(c(O)c1C2=O)C[C@@](O)(C(C)=O)C[C@@H]3O[C@H]1C[C@H](N)[C@H](O)[C@H](C)O1 [daunomycin]
- block of chloride channel / transport associated with p-glycoprotein [7]: blocked
- inhibition of / interaction with p-glycoprotein [6]: p-glycoprotein inhibitor

SMILES: CSc1ccc2c(c1)N(CCC1CCCCN1C)c1ccccc1S2 (stereo not drawn) [Thioridazine, 10H-Phenothiazine, 10-[2-(1-methyl-2-piperidinyl)ethyl]-2-(methylthio)-]
- plasma protein binding ([4]; plasma): 96-99%
- half-life, early phase ([1]; human, in vivo): 4 to 10 h
- half-life, late phase ([1]; human, in vivo): 26 to 36 h

SMILES: COc1cc2c(c(OC)c1OC)-c1ccc(OC)c(=O)cc1[C@@H](NC(C)=O)CC2 [colchicine]
- block of chloride channel / transport associated with p-glycoprotein [7]: blocked
- oral absorption ([1]; oral): well-absorbed
- inhibition of / interaction with p-glycoprotein [6]: inhibiting p-glycoprotein; also recorded: binding to p-glycoprotein
- inhibition of p-glycoprotein-mediated transport [8]: inhibitors

SMILES: Cc1c2oc3c(C)ccc(C(=O)N[C@@H]4C(=O)N[C@H](C(C)C)C(=O)N5CCC[C@H]5C(=O)N(C)CC(=O)N(C)[C@@H](C(C)C)C(=O)O[C@@H]4C)c3nc-2c(C(=O)N[C@@H]2C(=O)N[C@H](C(C)C)C(=O)N3CCC[C@H]3C(=O)N(C)CC(=O)N(C)[C@@H](C(C)C)C(=O)O[C@@H]2C)c(N)c1=O [actinomycin D] (I: T[dV]P[Sar][NMeV] / II: T[dV]P[Sar][NMeV]; ester I:1-I:C, II:1-II:C; linker I:N-II:N via Actinocin(9to1))
- CNS / blood-brain barrier penetration ([1]; human, in vivo): does not pass the blood-brain barrier
- excreted intact into the bile ([1]; human, in vivo): Half of the dose
- urinary excretion ([1]; human, in vivo): 10%
- half-life [1, 13]: about 36 hr
- inhibition of / interaction with p-glycoprotein [6]: inhibitor of p-glycoprotein
- inhibition of p-glycoprotein-mediated transport [8]: inhibitors

SMILES: OCCN1CCN(CC/C=C2\c3ccccc3Sc3ccc(C(F)(F)F)cc32)CC1 [trans-flupenthixol]
- clinical toxicity [9]: apparent lack of clinical toxicity
- reversal of drug resistance [11]: reversed cellular resistance to various drugs only in p-glycoprotein expressing cell lines; also recorded: fully reversed resistance to doxorubicin, vincristine, and colchicine
- potency for reversing MDR relative to verapamil ([11]; equimolar concentrations): two- to three-fold more potent

SMILES: CC[C@@]1(O)C(=O)OCc2c1cc1n(c2=O)Cc2cc3c(N)cccc3nc2-1 [9-AC, 9-amino-20(s)-camptothecin]
- antitumor activity [12]: significant activity of 9-AC against colon cancer

SMILES: CC/C(=C(\c1ccccc1)c1ccc(OCCN(C)C)cc1)c1ccccc1 [tamoxifen]
- dose-limiting toxicity ([9]; oral 150 mg/m2 twice a day): without dose-limiting toxicity
- bioavailability / dose reaching the systemic circulation ([1]; human, in vivo, po): 25-100%
- half-life, single dose ([1]; human, in vivo): 18 h
- half-life, steady state ([1]; human, in vivo): 7 h
- enhancement of intracellular concentration of cytotoxic drugs [3]: three-fold to ten-fold

SMILES: CC(C)(C)c1ccc(C(O)CCCN2CCC(C(O)(c3ccccc3)c3ccccc3)CC2)cc1 (stereo not drawn) [Terfenadine, 1-Piperidinebutanol, α-[4-(1,1-dimethylethyl)phenyl]-4-(hydroxydiphenylmethyl)-]
- plasma protein binding ([4]; plasma): 97%
- clinical toxicity [9]: relatively low toxicity profile
- drug accumulation and efflux in MDR lines ([11]; MDR lines): augments the accumulation of doxorubicin and inhibits the effluxof rhodamine 123
- drug accumulation or efflux in sensitive cells ([11]; sensitive cells): no effect
- peak plasma levels ([1]; human, in vivo, po): 1.5 to 4.5 ng/mL
- distribution half-life ([1]; human, in vivo): 3.5 h
- half-life ([1]; human, in vivo): 16 to 23 h
- oral absorption ([1]; oral): absorbed rapidly and almost completely

SMILES: CC[C@]1(O)C[C@H]2CN(CCc3c([nH]c4ccccc34)[C@@](C(=O)OC)(c3cc4c(cc3OC)N(C=O)[C@H]3[C@@](O)(C(=O)OC)[C@H](OC(C)=O)[C@]5(CC)C=CCN6CC[C@]43[C@@H]65)C2)C1 [vincristine]
- plasma protein binding [4]: bind to plasma proteins
- oral absorption ([1]; oral): Unpredictable absorption
- half-life ([1]; plasma or terminal half-life): about 24 hours
- Cmax ([1]; read-out: peak concentration in plasma, usual clinical doses): ~400 nM
- inhibition of p-glycoprotein ([6]; 10 μM): 95%
- inhibition of / interaction with p-glycoprotein [6]: p-glycoprotein inhibitor
- p-glycoprotein inhibition relative to comparator ([6]; vs verapamil, cyclosporine A, progesterone or anthracycline analogues): more potent than anthracycline analogues

SMILES: CC(=O)O[C@H]1C(=O)[C@@]2(C)[C@H]([C@H](OC(=O)c3ccccc3)[C@]3(O)C[C@H](OC(=O)[C@H](O)[C@@H](NC(=O)c4ccccc4)c4ccccc4)C(C)=C1C3(C)C)[C@]1(OC(C)=O)CO[C@@H]1C[C@@H]2O [taxol]
- inhibition of / interaction with p-glycoprotein [6]: interacted with p-glycoprotein
- antitumor activity [12]: activity against malignant melanoma and carcinoma of the ovary

SMILES: CC(C)NCC(O)COc1cccc2ccccc12 (stereo not drawn) [Propranolol]
- plasma protein binding ([4]; plasma): Approximately 90%
- reversal of drug resistance [11]: partially reverse drug resistance
- bioavailability / dose reaching the systemic circulation ([1]; human, in vivo, po): about 25%
- inter-individual variability in plasma concentrations ([1]; human, in vivo, po): approximately 20 fold
- CNS / blood-brain barrier penetration ([1]; human, in vivo): readily enters the CNS
- volume of distribution ([1]; human, in vivo): 4 L/kg
- oral absorption ([1]; oral): almost complete absorbed
